Test results published in patent publication US20090270338A1, “DIARYL-CYCLYLALKYL DERIVATIVES AS CALCIUM CHANNEL BLOCKERS” (priority 2008, published 2009).

Tests used:
[1] = target: T1, Human Cav2.2 channels (Homo sapiens, UniProt Q00975); assay: Fluorescent assay for Cav2.2 channels using potassium depolarization (Table 2, In Vitro Activity, Cav 2.2 Activity); type: cell-based; details: for IC50: 30 mM K; for inhibition at 10 µM: read-out: % Inh at 10 μM; for inhibition at 30 µM: read-out: % Inh at 30 μM
T1 construct: expressed in transfected cells
T1 sequence (Q00975 whole entry): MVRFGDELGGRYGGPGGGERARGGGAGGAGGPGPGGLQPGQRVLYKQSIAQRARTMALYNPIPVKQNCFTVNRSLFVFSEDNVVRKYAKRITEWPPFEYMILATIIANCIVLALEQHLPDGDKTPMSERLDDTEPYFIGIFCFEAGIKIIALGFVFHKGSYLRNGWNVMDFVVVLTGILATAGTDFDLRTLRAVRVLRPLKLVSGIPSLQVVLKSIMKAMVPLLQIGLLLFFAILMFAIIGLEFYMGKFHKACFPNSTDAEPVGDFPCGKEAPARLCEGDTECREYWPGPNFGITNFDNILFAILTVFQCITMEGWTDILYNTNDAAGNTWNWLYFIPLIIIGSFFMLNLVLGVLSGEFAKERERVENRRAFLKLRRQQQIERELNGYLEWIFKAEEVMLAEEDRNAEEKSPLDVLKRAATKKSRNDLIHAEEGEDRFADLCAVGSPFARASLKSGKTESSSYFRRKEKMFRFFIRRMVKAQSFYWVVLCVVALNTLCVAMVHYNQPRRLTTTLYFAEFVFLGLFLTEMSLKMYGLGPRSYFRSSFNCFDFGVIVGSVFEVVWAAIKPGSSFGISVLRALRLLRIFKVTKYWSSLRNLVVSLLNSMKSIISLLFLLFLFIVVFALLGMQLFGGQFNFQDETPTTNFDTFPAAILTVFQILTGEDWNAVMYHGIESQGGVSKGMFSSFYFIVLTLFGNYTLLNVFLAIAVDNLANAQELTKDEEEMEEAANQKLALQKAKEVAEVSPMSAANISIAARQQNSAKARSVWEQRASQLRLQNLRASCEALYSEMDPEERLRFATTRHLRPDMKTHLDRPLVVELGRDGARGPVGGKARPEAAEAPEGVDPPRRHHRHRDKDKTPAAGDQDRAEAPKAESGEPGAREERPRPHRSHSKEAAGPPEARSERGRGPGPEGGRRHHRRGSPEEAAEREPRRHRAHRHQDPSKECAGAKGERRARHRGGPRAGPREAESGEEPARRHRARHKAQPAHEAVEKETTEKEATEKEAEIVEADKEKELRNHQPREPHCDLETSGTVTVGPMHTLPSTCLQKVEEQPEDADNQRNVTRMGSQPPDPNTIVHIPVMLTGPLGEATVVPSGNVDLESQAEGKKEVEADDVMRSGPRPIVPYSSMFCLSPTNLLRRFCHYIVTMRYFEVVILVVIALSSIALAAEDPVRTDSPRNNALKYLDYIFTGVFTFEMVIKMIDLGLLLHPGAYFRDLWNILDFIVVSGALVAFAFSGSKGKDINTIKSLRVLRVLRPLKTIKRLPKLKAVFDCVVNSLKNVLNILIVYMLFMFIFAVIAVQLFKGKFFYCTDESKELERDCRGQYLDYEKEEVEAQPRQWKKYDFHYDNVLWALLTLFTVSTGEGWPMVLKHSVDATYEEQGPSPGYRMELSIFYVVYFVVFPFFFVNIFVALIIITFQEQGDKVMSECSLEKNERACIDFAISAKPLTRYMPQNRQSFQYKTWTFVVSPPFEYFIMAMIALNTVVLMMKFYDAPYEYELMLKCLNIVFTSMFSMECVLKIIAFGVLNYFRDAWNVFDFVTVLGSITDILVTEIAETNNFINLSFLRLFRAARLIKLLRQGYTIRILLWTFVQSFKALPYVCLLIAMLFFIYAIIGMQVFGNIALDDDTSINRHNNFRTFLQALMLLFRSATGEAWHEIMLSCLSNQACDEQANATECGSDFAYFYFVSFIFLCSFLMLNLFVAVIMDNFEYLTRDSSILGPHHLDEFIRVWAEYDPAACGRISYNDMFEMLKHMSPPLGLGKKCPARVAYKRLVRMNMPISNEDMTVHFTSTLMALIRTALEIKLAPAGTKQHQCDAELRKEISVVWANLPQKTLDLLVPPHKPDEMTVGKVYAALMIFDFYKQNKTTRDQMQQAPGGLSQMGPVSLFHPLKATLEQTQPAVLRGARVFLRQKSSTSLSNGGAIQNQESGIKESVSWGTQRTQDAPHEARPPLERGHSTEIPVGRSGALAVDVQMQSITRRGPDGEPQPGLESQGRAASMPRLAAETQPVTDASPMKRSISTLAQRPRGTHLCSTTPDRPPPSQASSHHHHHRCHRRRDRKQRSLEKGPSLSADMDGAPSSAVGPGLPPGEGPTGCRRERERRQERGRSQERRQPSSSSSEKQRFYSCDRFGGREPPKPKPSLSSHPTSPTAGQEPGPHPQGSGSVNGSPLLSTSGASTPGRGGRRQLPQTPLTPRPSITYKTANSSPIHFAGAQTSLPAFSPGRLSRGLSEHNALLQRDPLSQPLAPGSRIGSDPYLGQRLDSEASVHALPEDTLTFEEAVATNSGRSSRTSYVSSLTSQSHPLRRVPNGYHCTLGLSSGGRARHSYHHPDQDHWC
T1 sequence (P54289 25-1103 partner): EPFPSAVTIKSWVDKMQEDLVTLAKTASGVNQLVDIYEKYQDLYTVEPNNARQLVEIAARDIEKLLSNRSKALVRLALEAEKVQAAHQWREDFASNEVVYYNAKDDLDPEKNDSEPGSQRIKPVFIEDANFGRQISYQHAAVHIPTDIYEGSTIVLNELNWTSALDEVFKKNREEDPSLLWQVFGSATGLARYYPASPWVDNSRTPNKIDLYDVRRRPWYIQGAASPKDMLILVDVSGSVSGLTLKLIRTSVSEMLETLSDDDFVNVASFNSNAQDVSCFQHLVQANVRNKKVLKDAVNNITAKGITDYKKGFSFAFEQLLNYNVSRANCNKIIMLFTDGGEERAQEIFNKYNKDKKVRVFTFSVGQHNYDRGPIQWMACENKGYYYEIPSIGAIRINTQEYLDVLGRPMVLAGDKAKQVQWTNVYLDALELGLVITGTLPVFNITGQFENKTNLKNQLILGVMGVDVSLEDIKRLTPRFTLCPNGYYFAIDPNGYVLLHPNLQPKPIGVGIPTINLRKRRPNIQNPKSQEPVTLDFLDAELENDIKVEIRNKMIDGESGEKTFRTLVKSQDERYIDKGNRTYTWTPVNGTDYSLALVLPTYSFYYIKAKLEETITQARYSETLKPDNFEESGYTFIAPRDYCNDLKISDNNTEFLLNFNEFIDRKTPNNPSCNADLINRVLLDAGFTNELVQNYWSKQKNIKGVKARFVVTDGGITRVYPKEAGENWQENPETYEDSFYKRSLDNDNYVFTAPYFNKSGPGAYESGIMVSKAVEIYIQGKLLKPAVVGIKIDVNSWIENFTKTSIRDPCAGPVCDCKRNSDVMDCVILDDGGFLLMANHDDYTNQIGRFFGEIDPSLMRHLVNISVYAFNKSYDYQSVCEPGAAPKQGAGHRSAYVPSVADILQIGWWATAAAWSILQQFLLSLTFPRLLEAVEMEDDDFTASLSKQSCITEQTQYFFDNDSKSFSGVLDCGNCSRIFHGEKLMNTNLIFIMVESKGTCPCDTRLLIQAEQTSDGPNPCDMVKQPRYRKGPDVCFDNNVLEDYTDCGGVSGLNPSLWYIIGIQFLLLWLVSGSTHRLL
T1 sequence (P54284 whole entry partner): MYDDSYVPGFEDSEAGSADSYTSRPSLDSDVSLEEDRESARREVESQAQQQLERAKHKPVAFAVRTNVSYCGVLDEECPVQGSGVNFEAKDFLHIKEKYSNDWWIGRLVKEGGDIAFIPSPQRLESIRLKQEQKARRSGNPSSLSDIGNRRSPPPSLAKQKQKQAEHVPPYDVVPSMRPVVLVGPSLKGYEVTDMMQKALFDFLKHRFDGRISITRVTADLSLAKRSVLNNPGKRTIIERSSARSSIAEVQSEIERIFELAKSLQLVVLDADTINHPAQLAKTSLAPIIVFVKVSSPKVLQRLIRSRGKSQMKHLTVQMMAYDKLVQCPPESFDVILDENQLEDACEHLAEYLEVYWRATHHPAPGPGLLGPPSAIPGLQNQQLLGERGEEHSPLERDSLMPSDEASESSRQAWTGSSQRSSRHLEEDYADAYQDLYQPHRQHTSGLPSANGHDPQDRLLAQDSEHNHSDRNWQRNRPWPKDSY
Description: Human Cav2.2 channels were stably expressed in HEK293 cells along with alpha2-delta and beta subunits of voltage-gated calcium channels. An inwardly rectifying potassium channel (Kir2.3) was also expressed in these cells to allow more precise control of the cell membrane potential by extracellular potassium concentration. At low bath potassium concentration, the membrane potential is relatively negative, and is depolarized as the bath potassium concentration is raised. In this way, the bath potassium concentration can be used to regulate the voltage-dependent conformations of the channels. Compounds are incubated with cells in the presence of low (4 mM) potassium or elevated (12, 25 or 30 mM) potassium to determine the affinity for compound block of resting (closed) channels at 4 mM potassium or affinity for block of open and inactivated channels at 12, 25 or 30 mM potassium. After the incubation period, Cav2.2 channel opening is triggered by addition of higher concentration of potassium (70 mM final concentration) to further depolarize the cell. The degree of state-dependent block can be estimated from the inhibitory potency of compounds after incubation in different potassium concentrations.
Calcium influx through Cav2.2 channels is determined using a calcium sensitive fluorescent dye in combination with a fluorescent plate reader. Fluorescent changes were measured with either a VIPR (Aurora Instruments) or FLIPR (Molecular Devices) plate reader.
1. Seed cells in Poly-D-Lysine Coated 96 or 384-well plate and keep in a 37° C.-10% CO2 incubator overnight 2. Remove media, wash cells with 0.2 mL (96-well plate) or 0.05 mL (384-well plate) Dulbecco's Phosphate Buffered Saline (D-PBS) with calcium & magnesium (Invitrogen; 14040) 3. Add 0.1 mL (96-well plate) or 0.05 mL (384-well plate) of 4 μM fluor-4 (Molecular Probes; F-14202) and 0.02% Pluronic acid (Molecular Probes; P-3000) prepared in D-PBS with calcium & magnesium (Invitrogen; 14040) supplemented with 10 mM Glucose & 10 mM Hepes/NaOH; pH 7.4 4. Incubate in the dark at 25° C. for 60-70 min 5. Remove dye, wash cells with 0.1 mL (96-well plate) or 0.06 mL (384-well plate) of 4, 12, 25, or 30 mM Potassium Pre-polarization Buffer (PPB) 6. Add 0.1 mL (96-well plate) or 0.03 mL (384-well plate) of 4, 12, 25, 30 mM PPB with or without test compound 7. Incubate in the dark at 25° C. for 30 min 8. Read cell plate on VIPR instrument, Excitation=480 nm, Emission=535 nm 9. With VIPR continuously reading, add 0.1 mL (96-well plate) or 0.03 mL (384-well plate) of Depolarization Buffer (DB), which is 2× the final assay concentration, to the cell plate.

[2] = system: T-type over L-type channels; details: cited from earlier work

| Molecule | IC50 [1] [nM] | inhibition at 10 µM [1] [%] | inhibition at 30 µM [1] [%] | % Inh at 10 μM [1] [%] | % Inh at 30 μM [1] [%] | fold selective for T-type over L-type channels [2] |
| --- | --- | --- | --- | --- | --- | --- |
| 3,3-diphenyl-N-(1-(4-phenylpiperazine- 1-carbonyl)cyclohexyl)propanamide [Compound 5] | 380 |  |  | 92 | 84 |  |
| Cc1ccccc1C(CC(=O)NC1(C(=O)N2CCN(C(C)(C)C)CC2)CCCCC1)c1ccccc1C [Compound 2, N-(1-(4-tert-butylpiperazine-1-carbonyl)cyclohexyl)-3,3-dio-tolylpropanamide] |  | 67 | 92 |  |  |  |
| O=C(CC(c1ccccc1)c1ccccc1)NC1(C(=O)NCc2cccc(C(F)(F)F)c2)CCCCC1 [Compound 7, 1-(3,3-diphenylpropanamido)-N-(3-(trifluoromethyl)benzyl)cyclohexanecar-boxamide] | 190 | 99 | 102 |  |  |  |
| O=C(CC(c1ccccc1)c1ccccc1)NC1(C(=O)NCc2ccc(F)cc2F)CCCCC1 [Compound 10, N-(2,4-difluorobenzyl)-1-(3,3-diphenylpropanamido)cyclohexanecarboxamide] | 430 | 96 | 101 |  |  |  |
| O=C(CC(c1ccccc1)c1ccccc1)NC1(C(=O)N2CCN(c3ccc(Cl)cc3)CC2)CCCCC1 [Compound 11, N-(1-(4-(4-chlorophenyl)piperazine-1-carbonyl)cyclohexyl)-3,3-diphenylpropanamide] | 690 | 93 | 101 |  |  |  |
| O=C(CC(c1ccccc1)c1ccccc1)NC1(C(=O)N2CCN(c3cccc(F)c3)CC2)CCCCC1 [Compound 15, N-(1-(4-(3-fluorophenyl)piperazine-1-carbonyl)cyclohexyl)-3,3-diphenylpropanamide] | 330 | 72 | 81 |  |  |  |
| Cc1ccnc(N2CCN(C(=O)C3(NC(=O)CC(c4ccccc4)c4ccccc4)CCCCC3)CC2)c1 [Compound 16, N-(1-(4-(4-methylpyridin-2-yl)piperazine-1-carbonyl)cyclohexyl)-3,3-diphenylpropanamide] | 2750 | 81 | 85 |  |  |  |
| CS(=O)(=O)c1ccc(CNC(=O)C2(NC(=O)CC(c3ccccc3)c3ccccc3)CCCCC2)cc1 [Compound 17, 1-(3,3-diphenylpropanamido)-N-(4-(methylsulfonyl)benzyl)cyclohexane carboxamide] |  | 86 | 96 |  |  |  |
| O=C(CC(c1ccccc1)c1ccccc1)NC1(C(=O)NCc2ccc(O)cc2)CCCCC1 [Compound 18, 1-(3,3-diphenylpropanamido)-N-(4-hydroxybenzyl)cyclohexane carboxamide] |  | 87 | 97 |  |  |  |
| O=C(CC(c1ccccc1)c1ccccc1)NC1(C(=O)NCc2nccs2)CCCCC1 [Compound 22, 1-(3,3-diphenylpropanamido)-N-(thiazol-2-ylmethyl)cyclohexane carboxamide] |  | 55 | 77 |  |  |  |
| COCC(=O)O[C@]1(CCN(C)CCCc2nc3ccccc3[nH]2)CCc2cc(F)ccc2[C@@H]1C(C)C [Mibefradil] |  |  |  |  |  | 10-30 fold |
| N-(1-(4-(4-fluorophenyl)piperazine-1- carbonyl)cyclohexyl)-3,3- diphenylpropanamide [Compound 6] | 280 |  |  | 99 | 100 |  |

Second part, led by results:

| IC50 [1] [nM] | inhibition at 10 µM [1] [%] | inhibition at 30 µM [1] [%] | Molecule | % Inh at 10 μM [1] [%] | % Inh at 30 μM [1] [%] | fold selective for T-type over L-type channels [2] |
| --- | --- | --- | --- | --- | --- | --- |
|  | 42 | 65 | CC(C)(C)N1CCN(C(=O)C2(NC(=O)CC(c3ccccc3)c3ccccc3)CCCCC2)CC1 [Compound 1, N-(1-(4-tert-butylpiperazine-1-carbonyl)cyclohexyl)-3,3-diphenylpropanamide] |  |  |  |
| 440 | 95 | 96 | Cc1ccccc1C(CC(=O)NC1(C(=O)N2CCN(c3ccccc3)CC2)CCCCC1)c1ccccc1C [Compound 3, N-(1-(4-phenylpiperazine-1-carbonyl)cyclohexyl)-3,3-dio-tolylpropanamide] |  |  |  |
| 340 | 80 | 90 | O=C(CC(c1ccccc1)c1ccccc1)NC1(C(=O)N2CCN(c3ccccc3)CC2)CCCCC1 [Compound 4, 3,3-diphenyl-N-(1-(4-phenylpiperazine-1-carbonyl)cyclohexyl)propanamide] |  |  |  |
| 190 | 99 | 102 | O=C(CC(c1ccccc1)c1ccccc1)NC1(C(=O)NCc2ccc(F)cc2)CCCCC1 [Compound 8, 1-(3,3-diphenylpropanamido)-N-(4-fluorobenzyl)cyclohexanecarboxamide] |  |  |  |
| 170 | 97 | 102 | COc1ccc(CNC(=O)C2(NC(=O)CC(c3ccccc3)c3ccccc3)CCCCC2)cc1 [Compound 9, 1-(3,3-diphenylpropanamido)-N-(4-methoxybenzyl)cyclohexane carboxamide] |  |  |  |
| 370 | 95 | 98 | Cc1ccc(N2CCN(C(=O)C3(NC(=O)CC(c4ccccc4)c4ccccc4)CCCCC3)CC2)cc1C [Compound 12, N-(1-(4-(3,4-dimethylphenyl)piperazine-1-carbonyl)cyclohexyl)-3,3-diphenylpropanamide] |  |  |  |
| 590 | 96 | 95 | O=C(CC(c1ccccc1)c1ccccc1)NC1(C(=O)N2CCN(c3ccc(C(F)(F)F)cc3)CC2)CCCCC1 [Compound 13, 3,3-diphenyl-N-(1-(4-(4-(trifluoromethyl)phenyl)piperazine-1-carbonyl)cyclohexyl)propanamide] |  |  |  |
| 320 | 81 | 86 | O=C(CC(c1ccccc1)c1ccccc1)NC1(C(=O)N2CCN(c3ccc(F)cc3F)CC2)CCCCC1 [Compound 14, N-(1-(4-(2,4-difluorophenyl)piperazine-1-carbonyl)cyclohexyl)-3,3-diphenylpropanamide] |  |  |  |
|  | 62 | 93 | Cc1cnc(CNC(=O)C2(NC(=O)CC(c3ccccc3)c3ccccc3)CCCCC2)cn1 [Compound 19, 1-(3,3-diphenylpropanamido)-N-((5-methylpyrazin-2-yl)methyl)cyclohexanecarboxamide] |  |  |  |
|  | 71 | 86 | Cc1cc(CNC(=O)C2(NC(=O)CC(c3ccccc3)c3ccccc3)CCCCC2)no1 [Compound 20, 1-(3,3-diphenylpropanamido)-N-((5-methylisoxazol-3-yl)methyl)cyclohexanecarboxamide] |  |  |  |
|  | 14 | 51 | Cc1cnccc1CNC(=O)C1(NC(=O)CC(c2ccccc2)c2ccccc2)CCCCC1 [Compound 21, 1-(3,3-diphenylpropanamido)-N-((3-methylpyridin-4-yl)methyl)cyclohexanecarboxamide] |  |  |  |
|  | 81 | 88 | Cc1cccnc1CNC(=O)C1(NC(=O)CC(c2ccccc2)c2ccccc2)CCCCC1 [Compound 23, 1-(3,3-diphenylpropanamido)-N-((3-methylpyridin-2-yl)methyl)cyclohexanecarboxamide] |  |  |  |
